# Data as given in ChEMBL document CHEMBL5620394, “Synthesis of new antiproliferative 1,3,4-substituted-pyrrolo[3,2-c]quinoline derivatives, biological and in silico insights” (Eur J Med Chem, 2023).
# Calls of active or inactive are those of the source. No cut-off for these calls is given here.
# Legend:
# NCI-H292 = assay: Antiproliferative activity against human NCI-H292 cells assessed as inhibition of cell growth at >50 uM incubated for 4 hrs by MTS assay; assay type: functional, cell-based
# MCF7 [1] = assay: Antiproliferative activity against human MCF7 cells assessed as inhibition of cell growth at >50 uM incubated for 4 hrs by MTS assay; assay type: functional, cell-based
# HeLa [2] = assay: Antiproliferative activity against human HeLa cells assessed as inhibition of cell growth at >50 uM incubated for 4 hrs by MTS assay; assay type: functional, cell-based
# LA-N-5 [3] = assay: Antiproliferative activity against human LA-N-5 cells assessed as inhibition of cell growth at 10 uM incubated for 4 hrs by MTS assay; assay type: functional, cell-based
# [4] = Antiproliferative activity against human LA-N-5 cells assessed as inhibition of cell growth incubated for 4 hrs by MTS assay; assay type: functional
# [5] = Antiproliferative activity against human 16HBE14o- cells assessed as inhibition of cell growth incubated for 4 hrs by MTS assay; assay type: toxicity, cell-based; conditions: read-out: IG50
# HeLa [6] = assay: Antiproliferative activity against human HeLa cells assessed as inhibition of cell growth incubated for 4 hrs by MTS assay; assay type: functional
# MCF7 [7] = assay: Antiproliferative activity against human MCF7 cells assessed as inhibition of cell growth incubated for 4 hrs by MTS assay; assay type: functional
# LA-N-5 [8] = assay: Antiproliferative activity against human LA-N-5 cells assessed as reduction in cell growth at 10 to 100 uM incubated for 4 hrs by MTS assay; assay type: functional, cell-based; conditions: dose 10-100 µM
# CCRF-CEM = assay: Antiproliferative activity against human CCRF-CEM cells assessed as cell growth at 10 uM incubated for 48 hrs by sulforhodamine B assay relative to control; assay type: functional; conditions: read-out: Activity
# HL-60 = assay: Antiproliferative activity against human HL-60 cells assessed as cell growth at 10 uM incubated for 48 hrs by sulforhodamine B assay relative to control; assay type: functional; conditions: read-out: Activity
# K562 = assay: Antiproliferative activity against human K562 cells assessed as cell growth at 10 uM incubated for 48 hrs by sulforhodamine B assay relative to control; assay type: functional; conditions: read-out: Activity
# MOLT-4 = assay: Antiproliferative activity against human MOLT-4 cells assessed as cell growth at 10 uM incubated for 48 hrs by sulforhodamine B assay relative to control; assay type: functional; conditions: read-out: Activity
# RPMI-8226 = assay: Antiproliferative activity against human RPMI-8226 cells assessed as cell growth at 10 uM incubated for 48 hrs by sulforhodamine B assay relative to control; assay type: functional; conditions: read-out: Activity
# SR = assay: Antiproliferative activity against human SR cells assessed as cell growth at 10 uM incubated for 48 hrs by sulforhodamine B assay relative to control; assay type: functional; conditions: read-out: Activity
# NCI-H226 = assay: Antiproliferative activity against human NCI-H226 cells assessed as cell growth at 10 uM incubated for 48 hrs by sulforhodamine B assay relative to control; assay type: functional; conditions: read-out: Activity
# NCI-H522 = assay: Antiproliferative activity against human NCI-H522 cells assessed as cell growth at 10 uM incubated for 48 hrs by sulforhodamine B assay relative to control; assay type: functional; conditions: read-out: Activity
# HT-29 = assay: Antiproliferative activity against human HT-29 cells assessed as cell growth at 10 uM incubated for 48 hrs by sulforhodamine B assay relative to control; assay type: functional; conditions: read-out: Activity
# SNB-75 = assay: Antiproliferative activity against human SNB-75 cells assessed as cell growth at 10 uM incubated for 48 hrs by sulforhodamine B assay relative to control; assay type: functional; conditions: read-out: Activity
# UACC-257 = assay: Antiproliferative activity against human UACC-257 cells assessed as cell growth at 10 uM incubated for 48 hrs by sulforhodamine B assay relative to control; assay type: functional; conditions: read-out: Activity
# UACC-62 = assay: Antiproliferative activity against human UACC-62 cells assessed as cell growth at 10 uM incubated for 48 hrs by sulforhodamine B assay relative to control; assay type: functional; conditions: read-out: Activity
# 786-0 = assay: Antiproliferative activity against human 786-0 cells assessed as cell growth at 10 uM incubated for 48 hrs by sulforhodamine B assay relative to control; assay type: functional; conditions: read-out: Activity
# CAKI-1 = assay: Antiproliferative activity against human CAKI-1 cells assessed as cell growth at 10 uM incubated for 48 hrs by sulforhodamine B assay relative to control; assay type: functional; conditions: read-out: Activity
# UO-31 = assay: Antiproliferative activity against human UO-31 cells assessed as cell growth at 10 uM incubated for 48 hrs by sulforhodamine B assay relative to control; assay type: functional; conditions: read-out: Activity
# PC-3 = assay: Antiproliferative activity against human PC-3 cells assessed as cell growth at 10 uM incubated for 48 hrs by sulforhodamine B assay relative to control; assay type: functional; conditions: read-out: Activity
# MCF7 [9] = assay: Antiproliferative activity against human MCF7 cells assessed as cell growth at 10 uM incubated for 48 hrs by sulforhodamine B assay relative to control; assay type: functional; conditions: read-out: Activity
# MDA-MB-231 = assay: Antiproliferative activity against human MDA-MB-231 cells assessed as cell growth at 10 uM incubated for 48 hrs by sulforhodamine B assay relative to control; assay type: functional; conditions: read-out: Activity
# T47D = assay: Antiproliferative activity against human T47D cells assessed as cell growth at 10 uM incubated for 48 hrs by sulforhodamine B assay relative to control; assay type: functional; conditions: read-out: Activity
compound,measurement,setting,value
CCn1c(C)c(C(C)=O)c2c(-c3ccccc3)nc3ccccc3c21,Activity,NCI-H292,Active
same,Activity,MCF7 [1],Active
same,Activity,HeLa [2],Active
same,Activity,LA-N-5 [3],Active
same,IG50,[4],1 µM
same,GI50 at 4 h,[5],10 µM
same,IG50,HeLa [6],10 µM
same,IG50,MCF7 [7],10 µM
same,Activity,LA-N-5 [8],Active
same,growth at 10 µM,CCRF-CEM,88.5%
same,growth at 10 µM,HL-60,100%
same,growth at 10 µM,K562,99.2%
same,growth at 10 µM,MOLT-4,95.2%
same,growth at 10 µM,RPMI-8226,79.6%
same,growth at 10 µM,SR,91.7%
same,growth at 10 µM,NCI-H226,68.3%
same,growth at 10 µM,NCI-H522,92.6%
same,growth at 10 µM,HT-29,108%
same,growth at 10 µM,SNB-75,85.1%
same,growth at 10 µM,UACC-257,93.3%
same,growth at 10 µM,UACC-62,88.9%
same,growth at 10 µM,786-0,98.8%
same,growth at 10 µM,CAKI-1,93.8%
same,growth at 10 µM,UO-31,82.5%
same,growth at 10 µM,PC-3,80.5%
same,growth at 10 µM,MCF7 [9],93.6%
same,growth at 10 µM,MDA-MB-231,91.1%
same,growth at 10 µM,T47D,87%
